Laboratory results published in article PMC6017193, “Structure-Based Discovery of a Series of 5H-Pyrrolo[2,3-b]pyrazine FGFR Kinase Inhibitors” (Molecules : A Journal of Synthetic Chemistry and Natural …, 2018).

Legend:
[1] = tested on: KG1 leukemia cell line harboring FGFR1OP-FGFR1 fusion; assay: Cell proliferation assay in KG1 cells (SRB or MTT, 72 h); type: cell-based; conditions: Homo sapiens, KG-1, mean ± SD from two separate experiments, read-out: KG1 IC50 (antiproliferation activity)
Description: Cell proliferation was examined in a FGFR1-translocated KG1 leukemia cell line harboring FGFR1OP-FGFR1 fusion. The original KG1 cell line was purchased from ATCC (CRL-8031), and cultured according the ATCC standard protocol. Cells were seeded in 96-well tissue culture plates. On the next day, the cells were exposed to various concentrations of compounds and further cultured for 72 h. Cell proliferation was then determined using sulforhodamine B (SRB, from Sigma-Aldrich, St Louis, MO, USA) or the thiazolyl blue tetrazolium bromide (MTT, from Sigma-Aldrich, St Louis, MO, USA) assay. The IC50 values were calculated by concentration- response curve fitting using the four-parameter method.

KDR = KDR (Homo sapiens, UniProt P35968); assay: Kinase panel profiling; type: biochemical
VEGFR-1 = VEGFR-1 (Homo sapiens, UniProt P17948); assay: Kinase panel profiling; type: biochemical
EGFR = EGFR (Homo sapiens, UniProt P00533); assay: Kinase panel profiling; type: biochemical
ErbB2 = ErbB2 (Homo sapiens, UniProt P04626); assay: Kinase panel profiling; type: biochemical
ErbB4 = ErbB4 (Homo sapiens, UniProt Q15303); assay: Kinase panel profiling; type: biochemical
Abl = Abl (Homo sapiens, UniProt P00519); assay: Kinase panel profiling; type: biochemical
EPH-A2 = EPH-A2 (Homo sapiens, UniProt P29317); assay: Kinase panel profiling; type: biochemical
ROS1 = ROS1 (Homo sapiens, UniProt P08922); assay: Kinase panel profiling; type: biochemical
DDR2 = biological target: T1, DDR2 (Homo sapiens, UniProt Q16832); assay: Kinase panel profiling; type: biochemical
T1 sequence (Q16832 22-855): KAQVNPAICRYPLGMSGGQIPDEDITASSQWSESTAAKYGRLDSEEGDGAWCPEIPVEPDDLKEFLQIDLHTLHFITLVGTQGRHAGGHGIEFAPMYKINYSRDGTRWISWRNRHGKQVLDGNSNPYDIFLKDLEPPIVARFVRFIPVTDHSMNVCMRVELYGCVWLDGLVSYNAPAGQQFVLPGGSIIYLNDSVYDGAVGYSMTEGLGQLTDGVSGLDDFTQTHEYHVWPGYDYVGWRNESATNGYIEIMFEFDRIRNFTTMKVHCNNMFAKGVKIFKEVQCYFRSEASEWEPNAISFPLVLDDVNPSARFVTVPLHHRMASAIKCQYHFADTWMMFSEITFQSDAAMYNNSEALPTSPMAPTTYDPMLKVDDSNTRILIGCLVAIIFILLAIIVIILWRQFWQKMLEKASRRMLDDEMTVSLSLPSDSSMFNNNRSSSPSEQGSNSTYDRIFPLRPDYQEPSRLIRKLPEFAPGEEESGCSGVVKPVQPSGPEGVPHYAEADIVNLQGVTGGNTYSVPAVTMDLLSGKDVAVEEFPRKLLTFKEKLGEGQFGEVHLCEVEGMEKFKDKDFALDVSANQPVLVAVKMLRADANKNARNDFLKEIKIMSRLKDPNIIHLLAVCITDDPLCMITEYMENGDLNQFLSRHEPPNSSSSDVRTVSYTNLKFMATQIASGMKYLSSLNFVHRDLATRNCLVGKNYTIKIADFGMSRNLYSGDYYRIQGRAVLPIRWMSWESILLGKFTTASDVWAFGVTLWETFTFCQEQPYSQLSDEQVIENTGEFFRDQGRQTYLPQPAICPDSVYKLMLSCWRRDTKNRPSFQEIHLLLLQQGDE

Chain of KDR (P35968 20-1356, species assumed): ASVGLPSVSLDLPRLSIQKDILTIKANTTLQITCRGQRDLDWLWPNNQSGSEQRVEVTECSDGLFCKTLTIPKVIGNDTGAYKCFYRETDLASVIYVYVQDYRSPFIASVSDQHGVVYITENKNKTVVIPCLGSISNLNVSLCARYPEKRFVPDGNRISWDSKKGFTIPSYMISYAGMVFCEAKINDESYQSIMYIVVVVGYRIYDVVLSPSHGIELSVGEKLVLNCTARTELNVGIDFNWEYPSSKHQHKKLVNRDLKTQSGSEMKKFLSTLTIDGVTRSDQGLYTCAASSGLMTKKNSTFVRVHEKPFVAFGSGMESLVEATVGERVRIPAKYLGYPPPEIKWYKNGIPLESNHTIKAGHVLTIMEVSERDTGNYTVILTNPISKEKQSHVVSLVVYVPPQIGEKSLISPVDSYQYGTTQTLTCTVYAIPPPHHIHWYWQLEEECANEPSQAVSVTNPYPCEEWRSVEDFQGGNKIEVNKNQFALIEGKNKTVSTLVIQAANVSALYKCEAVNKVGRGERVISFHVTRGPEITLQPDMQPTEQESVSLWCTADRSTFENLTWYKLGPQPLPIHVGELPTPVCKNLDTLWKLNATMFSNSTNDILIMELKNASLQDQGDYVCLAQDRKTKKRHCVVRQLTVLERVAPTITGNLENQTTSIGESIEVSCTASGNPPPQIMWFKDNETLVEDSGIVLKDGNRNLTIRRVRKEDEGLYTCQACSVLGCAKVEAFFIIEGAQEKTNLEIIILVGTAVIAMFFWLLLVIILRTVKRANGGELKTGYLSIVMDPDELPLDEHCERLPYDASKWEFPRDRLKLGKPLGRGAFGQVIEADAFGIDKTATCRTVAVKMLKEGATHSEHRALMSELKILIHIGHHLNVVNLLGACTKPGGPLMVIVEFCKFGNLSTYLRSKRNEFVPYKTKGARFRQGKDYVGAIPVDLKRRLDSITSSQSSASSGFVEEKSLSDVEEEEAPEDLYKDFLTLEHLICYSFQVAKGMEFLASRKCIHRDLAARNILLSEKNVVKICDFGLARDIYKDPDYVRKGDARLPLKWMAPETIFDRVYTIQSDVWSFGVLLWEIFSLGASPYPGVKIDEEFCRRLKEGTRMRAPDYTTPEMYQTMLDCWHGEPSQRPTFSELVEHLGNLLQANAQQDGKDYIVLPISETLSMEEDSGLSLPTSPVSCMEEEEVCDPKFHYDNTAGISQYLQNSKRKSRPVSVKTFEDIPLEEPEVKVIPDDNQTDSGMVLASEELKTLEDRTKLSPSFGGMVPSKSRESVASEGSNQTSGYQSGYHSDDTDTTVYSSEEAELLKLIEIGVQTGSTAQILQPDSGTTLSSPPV
Chain of VEGFR-1 (P17948 27-1338, species assumed): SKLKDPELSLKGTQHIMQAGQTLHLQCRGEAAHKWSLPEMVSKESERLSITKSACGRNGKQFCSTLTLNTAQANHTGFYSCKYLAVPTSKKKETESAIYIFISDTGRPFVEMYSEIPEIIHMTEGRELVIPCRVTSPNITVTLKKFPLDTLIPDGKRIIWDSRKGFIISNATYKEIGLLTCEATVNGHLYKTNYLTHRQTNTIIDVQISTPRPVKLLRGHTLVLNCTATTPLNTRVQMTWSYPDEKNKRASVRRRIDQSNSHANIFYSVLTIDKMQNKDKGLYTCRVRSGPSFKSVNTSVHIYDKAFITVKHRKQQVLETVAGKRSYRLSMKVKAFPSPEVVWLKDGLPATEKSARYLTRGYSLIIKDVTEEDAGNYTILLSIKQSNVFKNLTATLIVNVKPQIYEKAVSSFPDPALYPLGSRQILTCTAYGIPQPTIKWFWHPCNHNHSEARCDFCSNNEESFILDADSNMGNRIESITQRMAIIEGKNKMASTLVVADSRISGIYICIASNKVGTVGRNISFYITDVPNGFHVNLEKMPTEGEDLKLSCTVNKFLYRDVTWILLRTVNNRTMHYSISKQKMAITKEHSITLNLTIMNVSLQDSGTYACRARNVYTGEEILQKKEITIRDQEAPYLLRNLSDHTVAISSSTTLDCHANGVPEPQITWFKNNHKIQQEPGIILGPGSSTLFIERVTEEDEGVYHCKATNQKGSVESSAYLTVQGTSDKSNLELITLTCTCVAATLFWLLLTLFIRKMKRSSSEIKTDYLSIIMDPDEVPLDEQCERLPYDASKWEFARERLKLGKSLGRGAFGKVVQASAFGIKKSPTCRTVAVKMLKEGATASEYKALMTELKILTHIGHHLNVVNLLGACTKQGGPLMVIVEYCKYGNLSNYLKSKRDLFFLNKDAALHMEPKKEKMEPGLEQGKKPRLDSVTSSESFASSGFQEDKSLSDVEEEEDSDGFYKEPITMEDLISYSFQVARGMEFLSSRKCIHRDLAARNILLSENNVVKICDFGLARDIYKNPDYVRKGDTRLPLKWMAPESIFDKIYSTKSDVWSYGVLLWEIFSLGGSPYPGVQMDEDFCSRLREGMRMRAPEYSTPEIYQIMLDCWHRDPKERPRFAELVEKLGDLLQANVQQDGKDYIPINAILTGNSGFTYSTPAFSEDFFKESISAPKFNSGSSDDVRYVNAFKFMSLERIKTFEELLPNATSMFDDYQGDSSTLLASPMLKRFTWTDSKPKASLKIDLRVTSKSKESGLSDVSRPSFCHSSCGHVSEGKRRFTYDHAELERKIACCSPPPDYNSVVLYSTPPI
Chain of ErbB4 (Q15303 26-1308, species assumed): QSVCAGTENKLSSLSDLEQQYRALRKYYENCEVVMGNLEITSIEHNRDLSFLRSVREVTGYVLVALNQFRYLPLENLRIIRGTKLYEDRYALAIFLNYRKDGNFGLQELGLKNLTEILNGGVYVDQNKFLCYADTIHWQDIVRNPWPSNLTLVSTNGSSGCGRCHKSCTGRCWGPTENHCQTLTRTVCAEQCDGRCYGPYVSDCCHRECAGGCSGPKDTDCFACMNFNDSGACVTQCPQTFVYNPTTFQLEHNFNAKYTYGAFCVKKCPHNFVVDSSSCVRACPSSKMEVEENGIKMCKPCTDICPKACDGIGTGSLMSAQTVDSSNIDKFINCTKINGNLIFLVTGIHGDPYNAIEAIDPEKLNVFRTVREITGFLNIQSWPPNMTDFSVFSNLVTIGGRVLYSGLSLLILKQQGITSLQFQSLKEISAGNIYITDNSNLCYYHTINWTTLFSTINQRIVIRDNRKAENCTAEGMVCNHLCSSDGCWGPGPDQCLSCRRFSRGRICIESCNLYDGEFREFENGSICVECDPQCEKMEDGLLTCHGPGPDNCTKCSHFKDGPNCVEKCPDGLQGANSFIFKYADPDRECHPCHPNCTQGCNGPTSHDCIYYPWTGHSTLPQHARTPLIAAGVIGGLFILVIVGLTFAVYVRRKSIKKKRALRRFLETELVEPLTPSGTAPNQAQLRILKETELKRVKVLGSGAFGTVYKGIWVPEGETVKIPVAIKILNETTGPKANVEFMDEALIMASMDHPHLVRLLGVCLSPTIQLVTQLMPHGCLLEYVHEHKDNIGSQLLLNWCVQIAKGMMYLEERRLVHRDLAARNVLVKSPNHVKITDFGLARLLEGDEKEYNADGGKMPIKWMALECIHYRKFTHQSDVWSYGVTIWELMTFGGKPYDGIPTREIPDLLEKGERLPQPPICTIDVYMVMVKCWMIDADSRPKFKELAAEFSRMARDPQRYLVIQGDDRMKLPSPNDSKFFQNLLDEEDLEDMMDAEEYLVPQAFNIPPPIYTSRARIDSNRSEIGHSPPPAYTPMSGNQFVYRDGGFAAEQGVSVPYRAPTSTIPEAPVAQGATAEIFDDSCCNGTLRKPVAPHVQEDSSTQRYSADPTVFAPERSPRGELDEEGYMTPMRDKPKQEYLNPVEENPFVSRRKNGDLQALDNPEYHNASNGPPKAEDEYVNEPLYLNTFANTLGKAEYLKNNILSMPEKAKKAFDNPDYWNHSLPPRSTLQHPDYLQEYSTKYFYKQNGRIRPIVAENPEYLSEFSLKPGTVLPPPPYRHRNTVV
Chain of EPH-A2 (P29317 24-976, species assumed): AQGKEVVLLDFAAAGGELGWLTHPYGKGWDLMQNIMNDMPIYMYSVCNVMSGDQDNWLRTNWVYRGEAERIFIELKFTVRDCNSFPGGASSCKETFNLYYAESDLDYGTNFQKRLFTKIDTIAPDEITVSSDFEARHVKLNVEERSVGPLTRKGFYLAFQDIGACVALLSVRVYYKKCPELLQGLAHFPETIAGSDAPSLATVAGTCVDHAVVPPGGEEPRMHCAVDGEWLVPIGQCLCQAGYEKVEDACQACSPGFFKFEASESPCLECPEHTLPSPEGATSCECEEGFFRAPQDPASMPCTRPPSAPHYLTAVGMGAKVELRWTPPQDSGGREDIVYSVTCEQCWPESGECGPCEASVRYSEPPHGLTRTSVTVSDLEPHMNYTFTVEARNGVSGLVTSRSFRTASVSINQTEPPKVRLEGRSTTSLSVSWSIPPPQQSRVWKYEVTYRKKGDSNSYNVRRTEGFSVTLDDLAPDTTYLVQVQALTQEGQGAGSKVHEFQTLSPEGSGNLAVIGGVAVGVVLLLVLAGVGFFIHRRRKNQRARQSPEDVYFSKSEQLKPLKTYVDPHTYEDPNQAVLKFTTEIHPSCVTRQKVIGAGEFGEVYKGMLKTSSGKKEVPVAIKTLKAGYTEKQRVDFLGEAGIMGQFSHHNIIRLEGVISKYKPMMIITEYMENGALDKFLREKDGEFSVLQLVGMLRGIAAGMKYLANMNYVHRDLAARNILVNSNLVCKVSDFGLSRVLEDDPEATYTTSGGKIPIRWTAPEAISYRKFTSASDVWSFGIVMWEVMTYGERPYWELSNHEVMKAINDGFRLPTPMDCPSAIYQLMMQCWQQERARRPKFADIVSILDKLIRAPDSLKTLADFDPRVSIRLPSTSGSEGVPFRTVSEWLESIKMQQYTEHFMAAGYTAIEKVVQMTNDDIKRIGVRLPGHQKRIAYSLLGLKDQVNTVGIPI

O=S(=O)(c1cn(CCF)cn1)n1ccc2ncc(-c3cn[nH]c3)nc21 [Compound 13, 5-((1-(2-fluoroethyl)-1H-imidazol-4-yl)sulfonyl)-3-(1H-pyrazol-4-yl)-5H-pyrrolo[2,3-b]pyrazine] was tested, and the IC50 [1] was 29.1 ± 5.5 nM, the inhibition at 0.01 µM (KDR; 10 nM) was 7.4% and the inhibition at 0.1 µM (KDR; 100 nM) was 17.1%. It also gave an inhibition at 1 µM (KDR; 1000 nM) of 46.3%, an inhibition at 0.01 µM (VEGFR-1; 10 nM) of 0% and an inhibition at 0.1 µM (VEGFR-1; 100 nM) of 4.9%. The inhibition at 1 µM (VEGFR-1; 1000 nM) was 0%, the inhibition at 0.01 µM (EGFR; 10 nM) was 0% and the inhibition at 0.1 µM (EGFR; 100 nM) was 0%. For the same molecule, the inhibition at 1 µM (EGFR; 1000 nM) was 0%, the inhibition at 0.01 µM (ErbB2; 10 nM) was 0% and the inhibition at 0.1 µM (ErbB2; 100 nM) was 0%. For the same molecule, the inhibition at 1 µM (ErbB2; 1000 nM) was 0%, the inhibition at 0.01 µM (ErbB4; 10 nM) was 0% and the inhibition at 0.1 µM (ErbB4; 100 nM) was 0%. It also gave an inhibition at 1 µM (ErbB4; 1000 nM) of 3%, an inhibition at 0.01 µM (Abl; 10 nM) of 0% and an inhibition at 0.1 µM (Abl; 100 nM) of 0%. It also gave an inhibition at 1 µM (Abl; 1000 nM) of 0%, an inhibition at 0.01 µM (EPH-A2; 10 nM) of 0% and an inhibition at 0.1 µM (EPH-A2; 100 nM) of 0%. It also gave an inhibition at 1 µM (EPH-A2; 1000 nM) of 0%, an inhibition at 0.01 µM (ROS1; 10 nM) of -3.8% and an inhibition at 0.1 µM (ROS1; 100 nM) of 3%. For the same molecule, the inhibition at 1 µM (ROS1; 1000 nM) was 11.8%, the inhibition at 0.01 µM (DDR2; 10 nM) was 3.6% and the inhibition at 0.1 µM (DDR2; 100 nM) was 0.9%. The inhibition at 1 µM (DDR2; 1000 nM) was 4.6%.
